In patent US20060234276A1, “Methods of treatment of type 2 diabetes” (priority 1998, published 2006):
Peptide text beside a SMILES is read from it.

Key:
perifused mouse islets = assay: Insulin secretion from perifused islets; type: cell-based; details: 4 hr preincubation; 100 μM ALLM, 200 μM E-64-d
Procedure: Insulin secretion from perifused islets. Insulin secretion from perifused islets was measured using a modification of a previously described protocol (Pontoglio et al., 1998; Sreenan et al., 1998).

rat adipocytes = assay: 2-Deoxyglucose uptake into adipocytes; type: cell-based; details: 100 μM ALLM or 200 μM E-64-d
Procedure: Adipocytes were isolated from epididymal fat pads of 3 month old male Wistar rats as described previously (Robdell, 1964) with the following modification: fat pads were minced to 1-2 mm pieces and incubated for ˜25 min at 37° C. with collagenase I (1 mg/ml, Worthington Biochemicals, Lakewood, N.J.) in KRB containing 10 mM Hepes (pH 7.4), 0.2% BSA and 2 mM sodium pyruvate. The cell suspension was filtered through a nylon mesh (134 μM, Spectrum Lab., Laguna Hills, Calif.) washed three times by floating and allowed to rest for 45 min in the KRB. […] Then another 50 μl of KRB containing 5 mM 2-DOG (final concentration 1 mM), 0.5 μCi of 2-deoxy-[2,6-^3H]glucose was added and cells were incubated for a further 5 min at 25° C. The transport was stopped by adding cytochalasin B (final concentration 50 μM) and cells were spun through 250 μl of dinonyl phthalate oil (Fisher Scientific, Pittsburgh, Pa.). Cells were then transferred to scintillation vials for counting.

β-cells = assay: Whole-cell patch-clamp calcium currents in β-cells; type: cell-based, mouse
Procedure: Isolation of pancreatic β-cells. Single β-cells were obtained from isolated islets dispersed by gentle trituration (120 strokes through a 200 μl pipette tip) in Ca^2+ and Mg^2+-free PBS containing […]. Cells were plated on glass coverslips and maintained in culture in RPMI containing 11.6 mM glucose for 48-96 hr.
Patch-clamp electrophysiology. Calcium current measurements were obtained in the whole-cell patch-clamp configuration. Calcium currents were activated by step depolarizations to either +10 or +20 mV for either 20 ms or 100 ms, from HP=−80 mV. All current records are corrected for leak and capacitance. The data was filtered at 2 kHz and then sampled every 100 μs. Pipette resistances were 1.5-2.5 MΩ. Series resistance was partially compensated (˜80%) using the compensation circuit of the Axopatch-1C amplifier.
Cells were incubated for 3-4 hr in RPMI at 37° C. in either 0.1% DMSO (control) or 100 μM ALLM and then transferred for a further 1-2 hr to KRB containing similar concentrations of DMSO or ALLM. For recording, cells were bathed in a solution containing (in mM): 145 NaCl, 2 KCl, 1 MgCl2, 2 glucose, 10 HEPES, 10 CaCl2, pH 7.3 (adjusted with NaOH) and either DMSO or ALLM. […]

Compound: CSCC[C@@H](C=O)NC(=O)[C@H](CC(C)C)NC(=O)[C@H](CC(C)C)NC(C)=O [ALLM, N-Ac-Leu-Leu-methioninal] (Ac-Leu-Leu-Met-aldehyde)
- enhancement of insulin secretory response to 20 mM glucose in dynamic islet perifusion (perifused mouse islets): also observed
- 2-DOG uptake into adipocytes with insulin (rat adipocytes; insulin 12 nmol/L): 751±71 pmol/2×10^5 cells/5 min
- 2-DOG uptake into adipocytes without insulin (rat adipocytes; no insulin): 598±102 pmol/2×10^5 cells/5 min
- average peak calcium current density (β-cells; ALLM 100 μM pre-treated cells, n=15): 36.7±3.9 pA/pF
- whole-cell calcium currents (β-cells; ALLM 100 μM pre-treated vs control cells): similar
